Reference: paper PMC4036671, “Switching and emergence of CTL epitopes in HIV-1 infection” (Retrovirology, 2014)

Tests used:
[1] = tested on: Nef126-10-specific CTL clone I30-1; experiment: Epitope recognition by CTL clone, peptide-pulsed 293FT-A24DRm-CY0 cells, IFN-γ ELISA; type: cell-based, human; conditions: 293FT-A24DRm-CY0 cells pulsed with serially diluted peptide (3^2 to 3^-6 μM), co-culture 18 to 24 h, three independent experiments
Experimental: (§1) The cells were washed twice with R10, then cultured with 1 × 10^6 autologous PBMCs and 4 × 10^6 irradiated (3300 rad) allogeneic PBMCs in R10. After 4 days, IL-2 was added to 50 U/ml and the cells were cultured for 2–3 weeks in R10/50. Peptide-specific CD8^+ T cells were enriched by MACS separation (Miltenyi) using tetramers. The sorted cells were cloned by limiting dilution to 3 or 10 cells/well in 96-well round-bottom tissue culture plates, and cultured with 10^5 irradiated allogeneic PBMCs in R10/50 containing 5 μg/ml PHA-L.
(§2) CTL-recognition of the epitopes was assessed by serially diluted peptides. On day 0, 293FT-A24DRm-CY0 cells were seeded onto 96-well Flat-bottom transparent plate (BD Falcon) so that the cultures become confluent on day 2. On day 2, each peptide was pulsed with concentrations from 3^2 to 3^-6 μM to the wells and incubated at 37°C under 5% CO2 for 1 h. Then CTLs (5,000 ~ 10,000 cells) were added and co-cultured at 37°C under 5% CO2 for 18 to 24 h. After the incubation, supernatants were harvested, and IFN-γ concentrations were quantified by Human IFN-γ ELISA Set (BD Bioscience). In each experiment, the IFN-γ value of samples was normalized to that of the highest wild type peptide concentration (9 μM). For example, each IFN-γ value of I30-1 CTL clone was divided by the value of the well pulsed with 9 μM Nef126-10(wt) peptide. Each assay was performed in duplicate and three independent experiments were conducted.

[2] = tested on: Nef134-10-specific CTL clone H27-9; experiment: as above; type: cell-based, human; conditions: 293FT-A24DRm-CY0 cells pulsed with serially diluted peptide (3^2 to 3^-6 μM), co-culture 18 to 24 h, three independent experiments
Experimental: as §1, §2

[3] = tested on: expanded PBMCs from 46 HIV-1 patients; experiment: IFN-γ ELISpot assay using expanded PBMCs (screening of HLA-A*24:02-restricted epitopes); type: cell-based, human; conditions: for response rate: 46 HLA-A*24:02-positive HIV-1 patients, peptide 10^-5 M, overnight 16 to 18 h, positive >50 SFU per 10^6 cells; for peptide-specific response among patients with Nef135Y: eight patients with Nef135Y in plasma HIV RNA
Experimental: (§3) The gamma interferon enzyme-linked immunospot (IFN-γ ELISpot) assay was performed using patients’ PBMCs as previously described with some modifications. In brief, 96-well plates (Millipore) were coated with anti-gamma-interferon (IFN-γ) MAb 1-D1k (Mabtech) overnight at 4°C. Peptides were added directly to the wells at a final concentration of 10^-5 M. 5 ~ 10 × 10^4 cells were added to each well with a final volume of 100 μl of R10. For negative controls, PBMCs were incubated with R10 alone without peptides. After incubation at 37°C under 5% CO2 overnight (16 to 18 h), the plates were washed six times with phosphate-buffered saline containing 0.01% tween-20 (PBST). Biotinylated anti-IFN-γ MAb 7-B6-1 (Mabtech) was added, and was incubated for 2 hours at 37°C under 5% CO2. After washing with PBST, streptavidin-alkaline phosphatase conjugate (Mabtech) was added and the plates were kept at room temperature for 45 min. After washing with PBST, IFN-γ-producing cells were detected as dark spots after 10- to 20-min color reaction with 5-bromo-4-chloro-3-indolylphosphate and nitroblue tetrazolium by using AP Conjugate Substrate Kit (Bio-Rad). Spots were counted by KS ELISPOT compact (Carl Zeiss) and expressed as spot-forming units (SFU) per 10^6 PBMCs after subtracting the SFU of the negative control. Values with >50 SFU, >3 × mean SFU of negative control and > mean SFU of negative control + 3 SD per 10^6 input cells were considered as a positive response.
(§4) Since more cells were required for the immune response screening (Figure 1B) and functional avidity assays (Figures 4B and 6C), PBMCs were stimulated with anti-human CD3 antibody and the T cells were expanded for 2 to 3 weeks in R10/50 (BD Pharmingen). Culture media was changed to R10 two days prior to the assay date. For ex vivo IFN-γ ELISpot assay (Figures 5B and 6B), PBMCs were cultured for 6 hours in R10 media.

PBMCs = experiment: Ex vivo IFN-γ ELISpot assay; type: cell-based, human; conditions: for correlation between magnitude of peptide-specific response and pVL: 24 IMSUT cohort patients harboring 133I/135F or 133T/135F, ex vivo IFN-γ ELISpot with frozen PBMCs, Spearman's rank correlation; for patients with peptide-specific response, plasma viruses 133T/135F: patients with 133T/135F viruses (n = 10)
Experimental: as §3, §4

HLA-A*24:02 = HLA-A*24:02 (Homo sapiens, UniProt P04439, D101N/D140Y/D185E/E176V/E190D/F33S/G103R/G107R/I119L/I121M/I306V/K335N/L105A/L180Q/L300P/N151K/N90K/Q86E/Q94H/R106L/R138H/R89G/T104I/T345S/V100E/W191G/Y123F); experiment: Peptide-HLA binding assay (T2-A24 stabilization assay); conditions: T2-A24 cells, 10^-4 to 10^-9 M peptide, normalized MFI (to 10^-4 M Nef134-8), three independent experiments
Experimental: Peptide binding to HLA-A*24:02 was assessed by using a T2-A24 stabilization assay as previously described. Briefly, after incubation for 16 hours at 26°C under 5% CO2, 2 × 10^5 T2-A24 cells were incubated with 10^-4 to 10^-9 M peptides for 1 h at 4°C. After keeping at 37°C under 5% CO2 for 3 hours, the cells were stained with biotinylated anti-human HLA-A9 monoclonal antibody (One Lambda), and streptavidin-APC conjugates (BD Pharmingen). The mean fluorescence intensity (MFI) was measured by FACSCalibur (Becton Dickinson). In each experiment, MFI of samples was normalized by the MFI of 10^-4 M control peptide, Nef134-8([…]). Three independent experiments were performed.

expanded PBMCs [4] = experiment: Functional avidity assay (IFN-γ ELISpot, limiting dilution of peptide); type: cell-based, human; conditions: nine individuals harboring 133T/135F, peptide 10^-5 to 10^-12 M, compared to Nef126-10(8T10F), Mann-Whitney U-test p < 0.05
Experimental: Basically, the assay was performed using the same procedure with IFN-γ ELISpot assay as described above. PBMCs were cultured for 2 to 3 weeks in R10/50 after anti-human CD3 antibody (BD Pharmingen) stimulation, and culture media were changed from R10/50 to R10 two days before use. PBMCs were incubated with peptides at concentrations from 10^-5 to 10^-12 M, and SFU was calculated. The functional avidity to peptide dilutions was determined as a 50% of sigmoidal dose (SD50) SFU.
All data visualization and statistical analyses were performed using GraphPad Prism (GraphPad Software, La Jolla, CA). Student’s t-test and Mann–Whitney U-test were used to compare the antigen presentation and functional avidity between two groups, respectively. Spearman rank correlation was used to calculate the correlation between peptide-specific response and pVL. Dose at 50% response in sigmoidal dose–response curves (SD50) was calculated by drawing sigmoidal dose–response curves. Time to mutational escape, defined as the time elapsed between estimated date of HIV-1 infection and the first appearance of a full or partial amino acid change consistent with the specific escape mutation of interest, was calculated using Kaplan-Meier (survival) methods.

expanded PBMCs [5] = experiment: Longitudinal IFN-γ ELISpot assay with serially diluted peptides in one individual; type: cell-based, human; conditions: one patient; for peptide-specific IFN-γ ELISpot response, latter time point: 2003/3/20, plasma virus 133T/135F
Experimental: as §3, with “In brief, 96-well plates (Millipore) were coated with anti-gamma-interferon (IFN-γ) MAb 1-D1k (Mabtech) overnight at 4°C.” left out, “Biotinylated anti-IFN-γ MAb 7-B6-1 (Mabtech) was added, and was incubated for 2 hours at 37°C under 5% CO2.” left out
as §4

Substance	IFN-γ production by CTL clone I30-1 [1]	response rate [3]	binding to HLA-A*24:02 (HLA-A*24:02)	peptide-specific IFN-γ ELISpot response, latter time point (expanded PBMCs [5])	other results
KYKLKHIVW [Gag28-9, reference compound]	Neither clone showed specificity	40.0%	–	–	IFN-γ production by CTL clone H27-9 [2]: Neither clone showed specificity
Nef126-10(8I10F) (NYTPGPGIRF)	strong responses at very low peptide concentration	–	dramatically improved its binding	robust responses	correlation between magnitude of peptide-specific response and pVL (PBMCs): inversely correlated with pVL; patients with peptide-specific response, plasma viruses 133T/135F (PBMCs; ex vivo IFN-γ ELISpot, PBMCs): 7 of 10; functional avidity (SD50) of peptide-specific CTL responses (expanded PBMCs [4]): significantly higher avidities
Nef126-10(8T10F): Nef126-10 peptide with threonine at 8th position (I133T) and F at position 10 (NYTPGPGTRF)	strong responses at very low peptide concentration	–	did not significantly affect epitope-HLA binding	robust responses	correlation between magnitude of peptide-specific response and pVL (PBMCs): not; patients with peptide-specific response, plasma viruses 133I/135F (PBMCs; ex vivo IFN-γ ELISpot, PBMCs, patients with 133I/135F viruses (n = 4)): 0 of 4; patients with peptide-specific response, plasma viruses 133T/135F (PBMCs; ex vivo IFN-γ ELISpot, PBMCs): Nine out of 10
Nef126-10(wt): wild-type Nef126-10 peptide with Y at the C-terminus (NYTPGPGIRY)	only at high concentrations	–	lowers the affinity	detected only at high peptide concentrations	–
Nef126-10: published HLA-A*24:02-restricted HIV-1 nef CTL epitope peptide, 10 amino acids from Nef126 (HXB2 numbering) (NYTPGPGVRY; UniProt P04601 126-135, looked up, fragment)	–	50.0%	–	–	number of responders among patients harboring Nef135F ([3]; 35 patients harboring Nef135F): 23; peptide-specific response among patients with Nef135Y [3]: none of the eight patients; peptide-specific IFN-γ ELISpot response, earlier time point (expanded PBMCs [5]; 2000/9/4, plasma virus wild type around Nef126-10/Nef134-10): no Nef126-10-specific responses were observed
Nef134-10: published HLA-A*24:02-restricted HIV-1 nef CTL epitope peptide, 10 amino acids from Nef134 (HXB2 numbering) (RYPLTFGWCY; UniProt P04601 134-143, looked up, fragment)	–	80.4%	–	decreased but remained detectable	number of responders among patients harboring Nef135F ([3]; 35 patients harboring Nef135F): 28; response rate among patients harboring Nef135F ([3]; 35 patients harboring Nef135F): 80.0%; peptide-specific response among patients with Nef135Y [3]: all of them
VPLDKDFRKY [reference compound]	–	–	might not bind to HLA-A*24:02	–	–
